39 compounds from ChEMBL document CHEMBL3217689, “Synthesis and antiplasmodial evaluation of aziridine(iso)quinoline hybrids and their ring-opening products” (Medchemcomm, 2013) can be followed below.

pIC50: −log10 of the molar value.

The pIC50 is −log10 of the IC50, conventionally taken in molar units. Higher therefore signals a small IC50.

The subject of one series is CHO. The experiment in a line: Cytotoxicity against CHO cells by MTT assay. Type of series: cell-based. The following applies: Cricetulus griseus. For orientation: Formazan colour is commonly taken as a measure of viable cells.
In series [1] the test system is Plasmodium falciparum. The experiment in a line: Antiplasmodial activity against chloroquine-resistant Plasmodium falciparum Dd2 by LDH assay. Type of series: functional, organism-based.
Series [2] can be described thus: Resistance index, ratio of IC50 for chloroquine-resistant Plasmodium falciparum Dd2 to IC50 for chloroquine-sensitive Plasmodium falciparum NF54.
Series [3] can be described thus: Selectivity index, ratio of IC50 for CHO cells to IC50 for chloroquine-sensitive Plasmodium falciparum NF54. The following applies: hamster; read-out: Ratio IC50. Type of series: toxicity, cell-based.
The subject of series [4] is Plasmodium falciparum. The experiment in a line: Antiplasmodial activity against chloroquine-sensitive Plasmodium falciparum NF54 by LDH assay. Type of series: functional, organism-based.

Take `OCC(COc1cccc2cnccc12)NCc1ccccc1` (configuration not stated): the negative logarithm of the IC50 (pIC50) in the series with CHO was 3.83; with Plasmodium falciparum [1], 4.75; in the series with Plasmodium falciparum [4] it was 5.17. In addition, the “Ratio IC50” value in series [2] is reported as 2.58. In addition, the selectivity ratio in series [3] stood at 21.8.
Turning to `Cn1nc(C(F)(F)F)cc1OCC1CN1Cc1cnc2ccccc2c1` (configuration not stated), in the series on Plasmodium falciparum [4], the pIC50 was less than 4.56.
`Cn1nc(C(F)(F)F)cc1OCC1CN1Cc1cc2ccccc2nc1Cl` (configuration not stated) showed a pIC50 in the series with Plasmodium falciparum [4] of less than 4.60.
On the same count and under the same terms, as for `Cn1nc(C(F)(F)F)cc1OCC1CN1Cc1ccnc2ccccc12` (configuration not stated), the figure is 5.02.
As for `Cn1nc(C(F)(F)F)cc1OCC(CO)NCc1cnc2ccccc2c1` (configuration not stated), the negative-log IC50 (pIC50) with CHO was 3.74; with Plasmodium falciparum [1], 4.82; in the series with Plasmodium falciparum [4] it was 5.33. Also, the selectivity ratio in series [3] was determined as 38.3.
In turn, `Cn1nc(C(F)(F)F)cc1OCC(CO)NCc1cc2ccccc2nc1Cl` (configuration not stated) showed a negative logarithm of the IC50 (pIC50) in the series with Plasmodium falciparum [4] of less than 4.62.
Same read-out and setting: as for `COCC(COc1cc(C(F)(F)F)nn1C)NCc1cc2ccccc2nc1Cl` (configuration not stated), the figure is 4.77; as for `COCC(COc1cc(C(F)(F)F)nn1C)NCc1cc2ccccc2nc1OC` (configuration not stated), less than 4.63.
With `O=c1nc(C(F)(F)F)ccn1CC1CN1Cc1cnc2ccccc2c1` (configuration not stated), the pIC50 with Plasmodium falciparum [4] is less than 4.56.
`O=c1nc(C(F)(F)F)ccn1CC1CN1Cc1cc2ccccc2nc1Cl` (configuration not stated) had a pIC50 in the series on Plasmodium falciparum [4] of 5.04.
Still for that read-out and setting: as for `O=c1c(Cl)c(Cl)cnn1CC1CN1Cc1cnc2ccccc2c1` (configuration not stated), the figure is 4.90.
`O=c1c(Cl)c(Cl)cnn1CC1CN1Cc1cc2ccccc2nc1Cl` (configuration not stated) showed a negative-log IC50 (pIC50) with Plasmodium falciparum [4] of 4.64.
`O=c1c(Cl)c(Cl)cnn1CC1CN1Cc1ccnc2ccccc12` (configuration not stated) gave a pIC50 in the series with Plasmodium falciparum [4] of 4.57.
Still for that read-out and setting: as for `O=c1c(Cl)c(Cl)cnn1CC(CO)NCc1cnc2ccccc2c1` (configuration not stated), the figure is 4.82; as for `O=c1c(Cl)c(Cl)cnn1CC(CO)NCc1cc2ccccc2nc1Cl` (configuration not stated), 4.82.
Same read-out and setting: as for `O=c1c(Cl)c(Cl)cnn1CC(CO)NCc1ccnc2ccccc12` (configuration not stated), the figure is 4.61.
For `COCC(Cn1ncc(Cl)c(Cl)c1=O)NCc1ccnc2ccccc12` (configuration not stated), the pIC50 in the series on Plasmodium falciparum [4] is 4.84.
As for `c1ccc(CN2CC2COc2cccc3cnccc23)cc1` (configuration not stated), the negative logarithm of the IC50 (pIC50) in the series on Plasmodium falciparum [4] is 5.00.
In turn, `Clc1ccc(CN2CC2COc2cccc3cnccc23)cc1` (configuration not stated) showed a negative-log IC50 (pIC50) with Plasmodium falciparum [4] of less than 4.51.
For the compound `Fc1ccc(CN2CC2COc2cccc3cnccc23)cc1` (configuration not stated), the pIC50 in the series with Plasmodium falciparum [4] was 4.80.
`Clc1ccccc1CN1CC1COc1cccc2cnccc12` (configuration not stated): in the series with Plasmodium falciparum [4], the pIC50 was 4.89.
In the series on Plasmodium falciparum [4], `COc1ccc(CN2CC2COc2cccc3cnccc23)cc1` (configuration not stated) showed a pIC50 of 5.00.
Compound `Clc1ccc(CN2CC2COc2cccc3cnccc23)c(Cl)c1` (configuration not stated) gave a negative-log IC50 (pIC50) with Plasmodium falciparum [4] of less than 4.56.
The compound `FC(F)(F)c1ccc(CN2CC2COc2cccc3cnccc23)cc1` (configuration not stated) gave a negative logarithm of the IC50 (pIC50) in the series on Plasmodium falciparum [4] of less than 4.55.
For `COc1ccccc1CN1CC1COc1cccc2cnccc12` (configuration not stated), the pIC50 in the series on CHO is 4.28; in the series on Plasmodium falciparum [1], 5.07; in the series with Plasmodium falciparum [4], 5.28. For the same compound, the “Ratio IC50” value in series [2] stood at 1.6. The selectivity ratio in series [3] is 9.88.
In the series with Plasmodium falciparum [4], `OCC(COc1cccc2cnccc12)NCc1ccc(Cl)cc1` (configuration not stated) showed a negative-log IC50 (pIC50) of 4.64.
On to `OCC(COc1cccc2cnccc12)NCc1ccc(Cl)cc1Cl` (configuration not stated), for which, in the series on Plasmodium falciparum [4], the negative-log IC50 (pIC50) is less than 4.58.
`OCC(COc1cccc2cnccc12)NCc1ccc(C(F)(F)F)cc1` (configuration not stated) showed a pIC50 with Plasmodium falciparum [4] of 4.93.
In the case of `COCC(COc1cccc2cnccc12)NCc1ccccc1` (configuration not stated), the negative-log IC50 (pIC50) with Plasmodium falciparum [4] was 4.89.
Compound `COCC(COc1cccc2cnccc12)NCc1ccc(F)cc1` (configuration not stated) showed a pIC50 in the series on Plasmodium falciparum [4] of 4.61.
Compound `COCC(COc1cccc2cnccc12)NCc1ccccc1Cl` (configuration not stated) showed a pIC50 in the series on Plasmodium falciparum [4] of 4.78.
Compound `COCC(COc1cccc2cnccc12)NCc1ccc(OC)cc1` (configuration not stated) gave a pIC50 in the series on Plasmodium falciparum [4] of less than 4.55.
As to `COCC(COc1cccc2cnccc12)NCc1ccccc1OC` (configuration not stated), the pIC50 in the series on Plasmodium falciparum [4] was less than 4.55.
With `c1ccc(CNC(CNc2ccccc2)COc2cccc3cnccc23)cc1` (configuration not stated), the negative logarithm of the IC50 (pIC50) with CHO is 3.63; with Plasmodium falciparum [1], 5.09; in the series with Plasmodium falciparum [4], 5.33. In addition, the “Ratio IC50” value in series [2] turned out to be 1.75. Besides, the selectivity ratio in series [3] was found to be 50.5.
In the case of `Clc1ccc(CNC(CNc2ccccc2)COc2cccc3cnccc23)cc1` (configuration not stated), in the series on Plasmodium falciparum [4], the pIC50 is 4.98.
Consider `[Br-].c1ccc(CN2CC2COc2cccc3c[n+](Cc4ccccc4)ccc23)cc1` (configuration not stated), for which the negative logarithm of the IC50 (pIC50) in the series on CHO is 4.29; in the series with Plasmodium falciparum [1], 5.99; in the series on Plasmodium falciparum [4] it was 5.96. Moreover, in series [2], the “Ratio IC50” value amounted to 0.94. For the same compound, in series [3], the selectivity ratio is 47.7.
The like results for `BrC(COc1cccc2c[n+](Cc3ccccc3)ccc12)CN(Cc1ccccc1)Cc1ccccc1.[Br-]` (configuration not stated) were, in that order, 4.35, 5.93, 6.66, 5.32 and 205.
`C[C@H]1[C@H](OC(=O)CCC(=O)O)O[C@@H]2O[C@@]3(C)CC[C@H]4[C@H](C)CC[C@@H]1[C@@]24OO3` [ARTESUNATE] had a negative-log IC50 (pIC50) in the series with Plasmodium falciparum [4] of 7.70.
`CC[C@H]1CN2CCc3cc(OC)c(OC)cc3[C@@H]2C[C@@H]1C[C@H]1NCCc2cc(OC)c(OC)cc21` [EMETINE] had a negative logarithm of the IC50 (pIC50) with CHO of 6.40.
